Experiment [1] addresses T1, recombinant human ALK5 (TGF-βR1) protein (Homo sapiens, UniProt P36897).
T1 construct: purchased Life Technologies PR9075A
T1 sequence (P36897 34-503): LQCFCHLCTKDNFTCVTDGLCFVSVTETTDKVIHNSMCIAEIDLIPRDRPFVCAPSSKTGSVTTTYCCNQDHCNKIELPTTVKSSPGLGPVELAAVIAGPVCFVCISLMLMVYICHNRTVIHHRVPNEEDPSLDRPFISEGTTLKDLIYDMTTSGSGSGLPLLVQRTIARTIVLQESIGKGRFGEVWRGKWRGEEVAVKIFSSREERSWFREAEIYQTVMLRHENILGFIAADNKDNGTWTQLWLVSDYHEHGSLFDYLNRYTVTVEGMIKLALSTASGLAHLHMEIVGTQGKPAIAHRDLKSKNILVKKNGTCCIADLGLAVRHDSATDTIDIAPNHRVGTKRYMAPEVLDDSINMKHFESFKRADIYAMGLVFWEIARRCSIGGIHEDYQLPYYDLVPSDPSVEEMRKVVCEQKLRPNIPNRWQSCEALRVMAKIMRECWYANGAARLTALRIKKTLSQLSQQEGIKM
Nature of the experiment: Biochemical ALK5 (TGF-βR1) assay to measure pKi (LANCE Ultra ULight kinase assay). Particulars: apparent pKi, converted from pIC50 by Cheng-Prusoff. The procedure, abridged: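 Cmpd + enzyme, 60 min RT; ATP from 125 μM (5×) stock, 60 min 37 °C; stop 12 mM EDTA/Eu anti-pThr1342 Topo2α Ab (pH 7.0 buffer); TR-FRET 665 nm. DMSO = max, SD-208 = min signal. 4-PL pIC50 → pKi (Cheng-Prusoff).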
For orientation: In TR-FRET formats the signal depends on donor and acceptor labels being close together.

Experiment [2] concerns TGF-β-stimulated SMAD3 phosphorylation in BEAS-2B cells. Description: Cellular ALK5 potency assay, inhibition of TGF-β stimulated pSMAD3 formation in BEAS-2B cells. Format: cell-based. The note with it: Homo sapiens, pSMAD3, TGF-β 10 ng/mL, read-out: BEAS2B pIC50 (converted). In outline:
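Reported as pIC50, potency reflects dose-dependent loss of AlphaLISA pSMAD3 signal versus TGF-β-stimulated, compound-free BEAS-2B cells. Compound was applied for 1 h in BSA-containing HBSS buffer before a 30-min challenge with TGF-β at 10 ng/mL final.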

On to `Cc1cccc(-c2nccc(Nc3ccnc(Nc4cccc(C(=O)OC5CCNCC5)c4)n3)n2)n1` [Compound 66, 4-piperidyl 3-[[4-[[2-(6-methyl-2-pyridyl)pyrimidin-4-yl]amino]pyrimidin-2-yl]amino]benzoate], for which the Ki in experiment [1] is 0.398 to 3.16 nM. In experiment [2], the IC50 was 25.1 to 158 nM.
For `Cc1cccc(-c2nccc(Nc3ccnc(Nc4ccc(-c5cn6c(n5)CNCC6)cc4)n3)n2)n1` [Compound 232, N4-[2-(6-methyl-2-pyridyl)pyrimidin-4-yl]-N2-[4-(5,6,7,8-tetrahydroimidazo[1,2-a]pyrazin-2-yl)phenyl]pyrimidine-2,4-diamine], in that order: 0.0398 to 0.316 nM and 25.1 to 158 nM.
On to `CC(=O)Nc1ccc(Nc2nccc(Nc3ccnc(-c4cccc(C)n4)n3)n2)cc1` [Compound 316, N-[4-[[4-[[2-(6-methyl-2-pyridyl)pyrimidin-4-yl]amino]pyrimidin-2-yl]amino]phenyl]acetamide], for which the Ki in experiment [1] is 0.398 to 3.16 nM. Moreover, the IC50 in experiment [2] was 25.1 to 158 nM.
For `Cc1cccc(-c2nccc(Nc3ccnc(Nc4ccc(CN5CCSCC5)cc4)n3)n2)n1` [Compound 104, N4-[2-(6-methyl-2-pyridyl)pyrimidin-4-yl]-N2-[4-(thiomorpholinomethyl)phenyl] pyrimidine-2,4-diamine], in that order: 0.0398 to 0.316 nM and 25.1 to 158 nM.
For `Cc1cccc(-c2nccc(Nc3ccnc(Nc4ccc(CN5CC6CCCC(C5)N6)cc4)n3)n2)n1` [Compound 177, N2-[4-(3,9-diazabicyclo[3.3.1]nonan-3-ylmethyl)phenyl]-N4-[2-(6-methyl-2-pyridyl)pyrimidin-4-yl]pyrimidine-2,4-diamine], in that order: 0.0398 to 0.316 nM and 25.1 to 158 nM.
On to `Cc1cccc(-c2nccc(Nc3ccnc(Nc4ccc(CN5CCC[C@H](C(=O)O[C@@H]6CCN(C)C6)C5)cc4)n3)n2)n1` [Compound 486, [(3R)-1-methylpyrrolidin-3-yl] (3S)-1-[[4-[[4-[[2-(6-methyl-2-pyridyl)pyrimidin-4-yl]amino]pyrimidin-2-yl]amino]phenyl]methyl] piperidine-3-carboxylate], for which, in experiment [1], the Ki is 0.0398 to 0.316 nM. Further, in experiment [2], the IC50 was 25.1 to 158 nM.
Consider `COC(=O)C1CN(CCNc2ccc(Nc3nccc(Nc4ccnc(-c5cccc(C)n5)n4)n3)cc2)CCN1C(C)C` (centres unmarked) [Compound 171, methyl 1-isopropyl-4-[2-[4-[[4-[[2-(6-methyl-2-pyridyl)pyrimidin-4-yl]amino]pyrimidin-2-yl]amino]anilino]ethyl] piperazine-2-carboxylate], for which the Ki in experiment [1] is 0.398 to 3.16 nM. In addition, the IC50 in experiment [2] is 25.1 to 158 nM.
For the compound `Cc1cccc(-c2nccc(Nc3ccnc(Nc4ccc5c(c4)CNCC5)n3)n2)n1` [Compound 175, N4-(2-(6-methylpyridin-2-yl)pyrimidin-4-yl)-N2-(1,2,3,4-tetrahydroisoquinolin-7-yl)pyrimidine-2,4-diamine], the Ki in experiment [1] is at most 0.0316 nM. Also, the IC50 in experiment [2] is 25.1 to 158 nM.
In the same order, the values of `Cc1cccc(-c2nccc(Nc3ccnc(Nc4ccc(-c5cnn(CCN)c5)cc4)n3)n2)n1` [Compound 440, N2-[4-[1-(2-aminoethyl)pyrazol-4-yl]phenyl]-N4-[2-(6-methyl-2-pyridyl)pyrimidin-4-yl]pyrimidine-2,4-diamine] are 0.0398 to 0.316 nM and 25.1 to 158 nM.
In the case of `Cc1cccc(-c2nccc(Nc3ccnc(Nc4ccc(CN5CCCC(C(=O)N6CCNCC6)C5)cc4)n3)n2)n1` (centres unmarked) [Compound 112, [1-[[4-[[4-[[2-(6-methyl-2-pyridyl)pyrimidin-4-yl]amino]pyrimidin-2-yl]amino]phenyl]methyl]-3-piperidyl]-piperazin-1-yl-methanone], the Ki in experiment [1] is 0.0398 to 0.316 nM. In addition, in experiment [2], the IC50 was 25.1 to 158 nM.
For `Cc1cccc(-c2nccc(Nc3ccnc(Nc4ccc(N)cc4)n3)n2)n1` [Compound 5, N2-(4-aminophenyl)-N4-[2-(6-methyl-2-pyridyl)pyrimidin-4-yl]pyrimidine-2,4-diamine], in that order: 0.398 to 3.16 nM and at most 20 nM.
For the compound `Cc1cccc(-c2nccc(Nc3ccnc(Nc4csc(C(=O)O[C@H]5C[C@H](N)C5)c4)n3)n2)n1` [Compound 638, (3-aminocyclobutyl) 4-[[4-[[2-(6-methyl-2-pyridyl)pyrimidin-4-yl]amino]pyrimidin-2-yl]amino]thiophene-2-carboxylate], the Ki in experiment [1] was 0.0398 to 0.316 nM. In addition, the IC50 in experiment [2] is 25.1 to 158 nM.
In the same order, the values of `Cc1cccc(-c2nc(Nc3ccnc(Nc4ccc(C(=O)NCC5CNC5)cc4)n3)c3cccn3n2)n1` [Compound 1035, N-(azetidin-3-ylmethyl)-4-[[4-[[2-(6-methyl-2-pyridyl)pyrrolo[2,1-f][1,2,4]triazin-4-yl]amino]pyrimidin-2-yl]amino]benzamide] are 0.0398 to 0.316 nM and 25.1 to 158 nM.
In the same order, the values of `Cc1cccc(-c2nccc(Nc3ccnc(Nc4cccc(C(=O)O[C@H]5CCN(C)C5)c4)n3)n2)n1` [Compound 308, [(3S)-1-methylpyrrolidin-3-yl] 3-[[4-[[2-(6-methyl-2-pyridyl)pyrimidin-4-yl]amino]pyrimidin-2-yl]amino]benzoate] are 0.398 to 3.16 nM and 200 to 1260 nM.
For `Cc1cccc(-c2nccc(Nc3ccnc(Nc4ccc(CN5CCCC(C(=O)O[C@H]6CCNC6)C5)cc4)n3)n2)n1` (mixture of isomers) [Compound 212, [rac-(3S)-pyrrolidin-3-yl] 1-[[4-[[4-[[2-(6-methyl-2-pyridyl)pyrimidin-4-yl]amino]pyrimidin-2-yl]amino]phenyl]methyl] piperidine-3-carboxylate], in that order: 0.0398 to 0.316 nM and 25.1 to 158 nM.
On to `Cc1cccc(-c2nccc(Nc3ccnc(Nc4ccc(NC[C@H]5CCCN5)cc4)n3)n2)n1` [Compound 65, N4-[2-(6-methyl-2-pyridyl)pyrimidin-4-yl]-N2-[4-[[(2R)-pyrrolidin-2-yl]methylamino]phenyl] pyrimidine-2,4-diamine], for which the Ki in experiment [1] was 0.0398 to 0.316 nM. The IC50 in experiment [2] is 25.1 to 158 nM.
For `Cc1cccc(-c2nccc(Nc3ccnc(Nc4csc(C(=O)OC[C@H]5CCCCN5)c4)n3)n2)n1` [Compound 588, [(2R)-2-piperidyl]methyl 4-[[4-[[2-(6-methyl-2-pyridyl)pyrimidin-4-yl]amino]pyrimidin-2-yl]amino]thiophene-2-carboxylate], in that order: 0.0398 to 0.316 nM and 25.1 to 158 nM.
For `Cc1cccc(-c2nc(Nc3ccnc(Nc4csc(C(=O)O)c4)n3)c3cccn3n2)n1` [Compound 1023, 4-[[4-[[2-(6-methyl-2-pyridyl)pyrrolo[2,1-f][1,2,4]triazin-4-yl]amino]pyrimidin-2-yl]amino]thiophene-2-carboxylic acid], the Ki in experiment [1] is 0.398 to 3.16 nM. For the same compound, in experiment [2], the IC50 is 200 to 1260 nM.
In the same order, the values of `Cc1cccc(-c2nccc(Nc3ccnc(Nc4ccccc4)n3)n2)n1` [Compound 43, N4-[2-(6-methyl-2-pyridyl)pyrimidin-4-yl]-N2-phenyl-pyrimidine-2,4-diamine] are 0.398 to 3.16 nM and at most 20 nM.
In the same order, the values of `Cc1cccc(-c2nccc(Nc3ccnc(Nc4cncc(C(=O)OC[C@@H]5CCCNC5)c4)n3)n2)n1` [Compound 595] are 0.398 to 3.16 nM and 25.1 to 158 nM.
For `Cc1cccc(-c2nccc(Nc3ccnc(Nc4ccc(Cl)c(NC(=O)C5CCNCC5)c4)n3)n2)n1` [Compound 135, N-[2-chloro-5-[[4-[[2-(6-methyl-2-pyridyl)pyrimidin-4-yl]amino]pyrimidin-2-yl]amino]phenyl]piperidine-4-carboxamide], in that order: 0.0398 to 0.316 nM and at most 20 nM.
Take `Cc1cccc(-c2nccc(Nc3ccnc(Nc4ncc(C(=O)N5CCNCC5)s4)n3)n2)n1` [Compound 30, [2-[[4-[[2-(6-methyl-2-pyridyl)pyrimidin-4-yl]amino]pyrimidin-2-yl]amino]thiazol-5-yl]-piperazin-1-yl-methanone]: the Ki in experiment [1] is 3.98 to 31.6 nM. The IC50 in experiment [2] is 200 to 1260 nM.
Consider `Cc1cccc(-c2nccc(Nc3ccnc(Nc4ccc(N5CCC(N(C)CC(C)C)CC5)cc4)n3)n2)n1` [Compound 393, N2-[4-[4-[isobutyl(methyl)amino]-1-piperidyl]phenyl]-N4-[2-(6-methyl-2-pyridyl)pyrimidin-4-yl]pyrimidine-2,4-diamine], for which the Ki in experiment [1] is 0.0398 to 0.316 nM. Also, the IC50 in experiment [2] is 25.1 to 158 nM.
For `Fc1ccc(Cl)cc1-c1ncc(C2CC2)c(Nc2ccnc(Nc3ccc(N4CCNCC4)cc3)n2)n1` [Compound 1013, N4-[2-(5-chloro-2-fluoro-phenyl)-5-cyclopropyl-pyrimidin-4-yl]-N2-(4-piperazin-1-ylphenyl)pyrimidine-2,4-diamine], in that order: 0.0398 to 0.316 nM and 200 to 1260 nM.
In the same order, the values of `Cc1cccc(-c2nccc(Nc3ccnc(Nc4ccc(CN5CCNCC5)cc4)n3)n2)n1` [Compound 359, N4-[2-(6-methyl-2-pyridyl)pyrimidin-4-yl]-N2-[4-(piperazin-1-ylmethyl)phenyl]pyrimidine-2,4-diamine] are 0.0398 to 0.316 nM and 25.1 to 158 nM.
